Experimental data: patent publication US9745335B2 (Blirt S.A., priority 2012, dated 2017)

What was measured:
LLC-PK1 cells = test: cytotoxic activity against mammalian cells in tissue culture (MTT); assay type: cell-based, pig
Protocol: (§1) All media contained 100 μg/ml of penicillin G and streptomycin. 24-wells microplates containing appropriate medium were inoculated with the cells in amount of 1.2×10^4 cells/well and allowed to stand overnight. Next, tested compounds as solution in dimethylsulfoxide (DMSO) were added in volume of 10 μl (serial 2× dilutions). To control well 10 μl of DMSO was added. Microplates with cell suspensions were incubated for 120 h at temperature 37° C. at atmosphere of 95%/5% CO2. After incubation, to all wells 200 μl of solution of 3-(4,5-dimethyltiazole-2-yl)-2,5-diphenylotetrazole bromide (MTT) in PBS (4 mg/ml) was added and plates were further incubated for 4 h at 37° C. Next, to dissolve crystals of formazane 1 ml of DMSO was added and absorption of solutions was measured at the wavelength λ=540 nm (A540), using a microplates reader (Victor^3, Perkin-Wallac). […] From these graphs IC50 values were read, that is concentration of tested compound in the presence at which A540 value is half of A540 value measured in the control sample.

[1] = tested on: Candida stellatoidea CBS 1905; test: antifungal activity in vitro, broader spectrum; assay type: cell-based
Protocol: (§2) For the determination of antifungal activity in vitro we used method of serial dilution in buffered medium RPMI 1640, pH 7.0, in a 96-wells microplates, according to the standard procedure (National Committee for Clinical Laboratory Standards. Reference method for broth dilution antifungal susceptibility testing of yeast, approved standard, 2nd ed. M27-A2 vol. 22 Wayne, Pa., 2002). The optical density of cells suspension was measured using a microplates reader (Victor^3, Perkin-Elmer) at the wavelength λ=531 nm (A531). On the basis of obtained results the diagrams of relation between A531 values and concentration of examined compound were made.
(§3) Obtained results are presented below in tables 2A and 2B.

[2] = tested on: Candida lipolytica KKP 322; test: antifungal activity in vitro, broader spectrum; assay type: cell-based
Protocol: as §2, §3

[3] = tested on: Aspergillus niger LOCK E201; test: antifungal activity in vitro, broader spectrum; assay type: cell-based
Protocol: as §2, §3

Candida arborea KKP 319 = test: antifungal activity in vitro, broader spectrum; assay type: cell-based
Protocol: as §2, §3

[4] = tested on: Candida quilliermondii DSM 11947; test: antifungal activity in vitro, broader spectrum; assay type: cell-based
Protocol: as §2, §3

[5] = tested on: Candida dubliniensis CBS 7987; test: antifungal activity in vitro, broader spectrum; assay type: cell-based
Protocol: as §2, §3

[6] = tested on: Candida parapsilosis DSM 5784; test: antifungal activity in vitro, broader spectrum; assay type: cell-based
Protocol: as §2, §3

[7] = tested on: Trichoderma viride LOCK E159; test: antifungal activity in vitro, broader spectrum; assay type: cell-based
Protocol: as §2, §3

Candida albicans SC 5314 = test: antifungal activity in vitro, broader spectrum; assay type: cell-based
Protocol: as §2, §3

[8] = tested on: Candida pseudotropicalis KKP 324; test: antifungal activity in vitro, broader spectrum; assay type: cell-based
Protocol: as §2, §3

Candida krusei DSM 6128 = test: antifungal activity in vitro, serial dilution in RPMI 1640; assay type: cell-based
Outline: (§4)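 Susceptibility was tested by serial broth dilution in buffered RPMI 1640, pH 7.0, following the NCCLS M27-A2 reference procedure for yeasts. Growth was read as optical density at 531 nm, and A531 was plotted against compound concentration.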

[9] = tested on: Candida lusitaniae DSM 70102; test: as above; assay type: cell-based
Outline: as §4

[10] = tested on: Candida glabrata DSM 11226; test: as above; assay type: cell-based
Outline: as §4

[11] = tested on: Candida albicans ATCC 10231; test: as above; assay type: cell-based
Outline: as §4

[12] = tested on: Saccharomyces cerevisiae ATCC 9763; test: as above; assay type: cell-based; details: RPMI 1640, pH 7.0; for Antifungal activity IC50: Saccharomyces cerevisiae ATCC 9763 (first head over MIC and IC50); for Antifungal activity MIC: Saccharomyces cerevisiae ATCC 9763
Outline: as §4

[13] = tested on: Candida tropicalis KKP 334; test: as above; assay type: cell-based
Outline: as §4

HepG2 cells = test: cytotoxic activity against mammalian cells in tissue culture (MTT); assay type: cell-based, human
Protocol: as §1

CCRF-CEM cells = test: as above; assay type: cell-based, human
Protocol: as §1

Human erythrocytes = test: hemotoxicity determination (hemolytic activity); assay type: cell-based
Outline: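 Human erythrocytes (2×10^7/ml in saline) were incubated with serially diluted compound for 30 min at 37 °C and then centrifuged. Released haemoglobin was read at A540 against a 0.1% Triton X-100 full-lysis control. EH50 is the interpolated concentration giving 50% of the control A540.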

[14] = tested on: Candida albicans strain STY7 (CaCdr1p); test: antifungal activity against MDR fungal strains and parents; assay type: cell-based; details: C. albicans STY7 (CaCdr1p), 5674 derivative, deletion of CDR2
Protocol: as §2

[15] = tested on: Candida albicans clinical strain B3; test: as above; assay type: cell-based; details: C. albicans B3, fluconazole sensitive, parent strain for B4
Protocol: as §2

[16] = tested on: Candida albicans clinical strain B4 (CaMdr1p); test: as above; assay type: cell-based; details: C. albicans B4 (CaMdr1p), fluconazole-resistant
Protocol: as §2

[17] = tested on: Candida albicans clinical strain Gu4; test: as above; assay type: cell-based; details: C. albicans Gu4, fluconazole sensitive, parent strain for Gu5
Protocol: as §2

[18] = tested on: Candida albicans clinical strain Gu5 (CaCdr1p, CaCdr2p); test: as above; assay type: cell-based; details: C. albicans Gu5 (CaCdr1p, CaCdr2p), fluconazole-resistant
Protocol: as §2

[19] = tested on: Candida albicans strain 5674 (CaCdr1p, CaCdr2p); test: as above; assay type: cell-based; details: C. albicans 5674 (CaCdr1p, CaCdr2p)
Protocol: as §2

[20] = tested on: Candida albicans strain STY31; test: as above; assay type: cell-based; details: C. albicans STY31, 5674 derivative, deletion of CDR1 and CDR2
Protocol: as §2

[21] = tested on: Candida albicans clinical strain F5 (CaMdr1p); test: as above; assay type: cell-based; details: C. albicans F5 (CaMdr1p), fluconazole-resistant
Protocol: as §2

[22] = tested on: Candida albicans clinical strain F2; test: as above; assay type: cell-based; details: C. albicans F2, fluconazole sensitive, parent strain for F5
Protocol: as §2

Row | Compound | IC50 (cytotoxic activity) (LLC-PK1 cells) | Antifungal activity MIC [1] | Antifungal activity MIC [2] | Antifungal activity MIC [3] | Antifungal activity MIC (Candida arborea KKP 319) | Antifungal activity MIC [4] | Antifungal activity MIC [5] | Antifungal activity MIC [6] | Antifungal activity MIC [7] | Antifungal activity MIC (Candida albicans SC 5314) | Antifungal activity MIC [8] | Antifungal activity MIC (Candida krusei DSM 6128) | Antifungal activity MIC [9] | Antifungal activity MIC [10] | Antifungal activity MIC [11] | Antifungal activity IC50 [12] | Antifungal activity MIC [12] | Antifungal activity MIC [13] | IC50 (cytotoxic activity) (HepG2 cells) | IC50 (cytotoxic activity) (CCRF-CEM cells) | other results
1 | C[C@@H]1[C@H](O)[C@@H](C)/C=C/C=C/C=C/C=C/C=C/C=C/C=C/[C@H](O[C@@H]2O[C@H](C)[C@@H](O)[C@H](NC(=O)[C@@H](N)Cc3ccccc3)[C@@H]2O)C[C@@H]2O[C@](O)(C[C@@H](O)C[C@@H](O)[C@H](O)CC[C@@H](O)C[C@@H](O)CC(=O)O[C@H]1C)C[C@H](O)[C@H]2C(=O)O [Compound A30, N-L-phenylalanylamphotericin B] | >100 µg/mL | 1 µg/mL | 2 µg/mL | 2 µg/mL | 4 µg/mL | 1 µg/mL | 1 µg/mL | 2 µg/mL | 4 µg/mL | 1 µg/mL | 1 µg/mL | 2 µg/mL | 2 µg/mL | 2 µg/mL | 2 µg/mL | 0.90 µg/mL | 2 µg/mL | 2 µg/mL | >100 µg/mL | >100 µg/mL | Hemotoxi EH50 (Human erythrocytes): >100 µg/mL; Antifungal activity MIC [14]: 1 µg/mL; Antifungal activity MIC [15]: 0.5 µg/mL; Antifungal activity MIC [16]: 2 µg/mL; Antifungal activity MIC [17]: 1 µg/mL; Antifungal activity MIC [18]: 2 µg/mL; Antifungal activity MIC [19]: 0.5 µg/mL; Antifungal activity MIC [20]: 1 µg/mL; Antifungal activity MIC [21]: 4 µg/mL; Antifungal activity MIC [22]: 2 µg/mL
2 | N-(4-N,N-diethylaminobenzyl)amphotericin B [Compound A19] | >100 µg/mL | 1 µg/mL | 2 µg/mL | 1 µg/mL | 2 µg/mL | 2 µg/mL | 0.5 µg/mL | 2 µg/mL | 4 µg/mL | 0.5 µg/mL | 0.5 µg/mL | 2 µg/mL | 1 µg/mL | 2 µg/mL | 1 µg/mL | 0.53 µg/mL | 1 µg/mL | 1 µg/mL | >100 µg/mL | >100 µg/mL | Hemotoxi EH50 (Human erythrocytes): >100 µg/mL; Antifungal activity MIC [14]: 1 µg/mL; Antifungal activity MIC [15]: 1 µg/mL; Antifungal activity MIC [16]: 2 µg/mL; Antifungal activity MIC [17]: 1 µg/mL; Antifungal activity MIC [18]: 1 µg/mL; Antifungal activity MIC [19]: 1 µg/mL; Antifungal activity MIC [20]: 1 µg/mL; Antifungal activity MIC [21]: 2 µg/mL; Antifungal activity MIC [22]: 2 µg/mL
